Test results: patent US6613747B2, “6-O-carbamoyl ketolide antibacterials” (Ortho-McNeil Pharmaceutical, Inc., priority 2000, dated 2003)
In brackets after ≈: the same amount, converted by molar mass.

What was measured:
Assay in all cases: MIC, microdilution broth method (NCCLS)
Type in all cases: cell-based
[1] = test system: E. coli OC2605; conditions: A: E. coli OC2605, 35° C., 16-20 hours
Summary of the method: (§1)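 Cation-adjusted Mueller-Hinton broth held two-fold serial dilutions of each compound. Wells received about 5×10^4 CFU of test organism and were incubated at 35° C. for 16-20 hours.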

[2] = test system: S. pneumoniae ATCC49619; conditions: D: S. pneumoniae ATCC49619, 35° C., 16-20 hours
Summary of the method: as §1

[3] = test system: E. faecalis ATCC29212; conditions: C: E. faecalis ATCC29212, 35° C., 16-20 hours
Summary of the method: as §1

[4] = test system: H. influenzae ATCC49247; conditions: E: H. influenzae ATCC49247, 35° C., 16-20 hours
Summary of the method: as §1

[5] = test system: S. aureus ATCC29213; conditions: B: S. aureus ATCC29213, 35° C., 16-20 hours
Summary of the method: as §1

MIC [1] [µg/mL]	MIC [2]	MIC [3] [µg/mL]	MIC [4] [µg/mL]	MIC [5] [µg/mL]	Structure (SMILES)
16 (≈ 18.7 µM)	0.06 µg/mL (≈ 0.0703 µM)	0.25 (≈ 0.293 µM)	8 (≈ 9.37 µM)	0.5 (≈ 0.585 µM)	CCC1OC(=O)C(C)(F)C(=O)C(C)C(OC2OC(C)CC(N(C)C)C2O)C(C)(OC(=O)NCC=Cc2ccc(-c3ncccn3)cc2)CC(C)C(=O)C(C)C2NC(=O)OC12C (stereo not drawn) [Compound 89]
16 (≈ 19.4 µM)	0.06 µg/mL (≈ 0.0727 µM)	0.06 (≈ 0.0727 µM)	2 (≈ 2.42 µM)	0.25 (≈ 0.303 µM)	CC[C@H]1OC(=O)[C@H](C)C(=O)[C@H](C)[C@@H](O[C@@H]2O[C@H](C)C[C@H](N(C)C)[C@H]2O)[C@](C)(OC(=O)NC/C=C/c2ccc(-n3cccn3)nc2)C[C@@H](C)C(=O)[C@H](C)[C@H]2NC(=O)O[C@@]21C [Compound 49]
>16	0.06 µg/mL (≈ 0.0714 µM)	1 (≈ 1.19 µM)	8 (≈ 9.52 µM)	4 (≈ 4.76 µM)	CC[C@H]1OC(=O)[C@H](C)C(=O)[C@H](C)[C@@H](O[C@@H]2O[C@H](C)C[C@H](N(C)C)[C@H]2O)[C@](C)(OC(=O)NCCNC(=O)c2cnc3ccccc3c2)C[C@@H](C)C(=O)[C@H](C)[C@H]2NC(=O)O[C@@]21C [Compound 113]
16 (≈ 18.7 µM)	0.12 µg/mL (≈ 0.141 µM)	0.12 (≈ 0.141 µM)	1 (≈ 1.17 µM)	0.5 (≈ 0.586 µM)	CC[C@H]1OC(=O)[C@H](C)C(=O)[C@H](C)[C@@H](O[C@@H]2O[C@H](C)C[C@H](N(C)C)[C@H]2O)[C@](C)(OC(=O)NCc2ccc(-c3ccc([N+](=O)[O-])cn3)cc2)C[C@@H](C)C(=O)[C@H](C)[C@H]2NC(=O)O[C@@]21C [Compound 42]
>16	0.12 µg/mL (≈ 0.149 µM)	0.5 (≈ 0.623 µM)	>16	8 (≈ 9.96 µM)	CC[C@H]1OC(=O)[C@H](C)C(=O)[C@H](C)[C@@H](O[C@@H]2O[C@H](C)C[C@H](N(C)C)[C@H]2O)[C@](C)(OC(=O)NCCCc2ccc(N(C)C)cc2)C[C@@H](C)C(=O)[C@H](C)[C@H]2NC(=O)O[C@@]21C [Compound 14]
>16	0.25 µg/mL (≈ 0.307 µM)	2 (≈ 2.45 µM)	16 (≈ 19.6 µM)	8 (≈ 9.82 µM)	CC[C@H]1OC(=O)[C@H](C)C(=O)[C@H](C)[C@@H](O[C@@H]2O[C@H](C)C[C@H](N(C)C)[C@H]2O)[C@](C)(OC(=O)NCCN2C(=O)c3ccccc3C2=O)C[C@@H](C)C(=O)[C@H](C)[C@H]2NC(=O)O[C@@]21C [Compound 109]
16 (≈ 20.1 µM)	0.03 µg/mL (≈ 0.0376 µM)	0.06 (≈ 0.0752 µM)	4 (≈ 5.01 µM)	0.5 (≈ 0.627 µM)	CC[C@H]1OC(=O)[C@H](C)C(=O)[C@H](C)[C@@H](O[C@@H]2O[C@H](C)C[C@H](N(C)C)[C@H]2O)[C@](C)(OC(=O)NCc2ccc(-n3cccn3)cc2)C[C@@H](C)C(=O)[C@H](C)[C@H]2NC(=O)O[C@@]21C [Compound 7]
16 (≈ 19 µM)	0.03 µg/mL (≈ 0.0357 µM)	0.12 (≈ 0.143 µM)	4 (≈ 4.76 µM)	0.25 (≈ 0.298 µM)	CC[C@H]1OC(=O)[C@H](C)C(=O)[C@H](C)[C@@H](O[C@@H]2O[C@H](C)C[C@H](N(C)C)[C@H]2O)[C@](C)(OC(=O)NCc2ccc(-c3nccc(OC)n3)cc2)C[C@@H](C)C(=O)[C@H](C)[C@H]2NC(=O)O[C@@]21C [Compound 70]
>16	0.5 µg/mL (≈ 0.575 µM)	2 (≈ 2.3 µM)	>16	4 (≈ 4.6 µM)	CC[C@H]1OC(=O)[C@H](C)C(=O)[C@H](C)[C@@H](O[C@@H]2O[C@H](C)C[C@H](N(C)C)[C@H]2O)[C@](C)(OC(=O)N(CC#Cc2ccccc2)CC#Cc2ccccc2)C[C@@H](C)C(=O)[C@H](C)[C@H]2NC(=O)O[C@@]21C [Compound 11]
8 (≈ 9.55 µM)	≦0.015 μg/mL	0.06 (≈ 0.0716 µM)	2 (≈ 2.39 µM)	0.25 (≈ 0.298 µM)	CC[C@H]1OC(=O)[C@H](C)C(=O)[C@H](C)[C@@H](O[C@@H]2O[C@H](C)C[C@H](N(C)C)[C@H]2O)[C@](C)(OC(=O)NC/C=C/c2ccc(Br)nc2)C[C@@H](C)C(=O)[C@H](C)[C@H]2NC(=O)O[C@@]21C [Compound 72]
8 (≈ 9.71 µM)	0.03 µg/mL (≈ 0.0364 µM)	0.06 (≈ 0.0728 µM)	2 (≈ 2.43 µM)	0.25 (≈ 0.303 µM)	CC[C@H]1OC(=O)[C@H](C)C(=O)[C@H](C)[C@@H](O[C@@H]2O[C@H](C)C[C@H](N(C)C)[C@H]2O)[C@](C)(OC(=O)NC/C=C/c2ccc(-n3ccnc3)cc2)C[C@@H](C)C(=O)[C@H](C)[C@H]2NC(=O)O[C@@]21C [Compound 22]

Structure (SMILES)	MIC [1] [µg/mL]	MIC [2]	MIC [3] [µg/mL]	MIC [4] [µg/mL]	MIC [5] [µg/mL]
CC[C@H]1OC(=O)[C@H](C)C(=O)[C@H](C)[C@@H](O[C@@H]2O[C@H](C)C[C@H](N(C)C)[C@H]2O)[C@](C)(OC(=O)NCCCc2ccc(-c3ncccn3)cc2)C[C@@H](C)C(=O)[C@H](C)[C@H]2NC(=O)O[C@@]21C [Compound 80, Carbamic acid, [3-[4-(2-2pyrimidinyl)phenyl]propyl]-, (3aS,4R,7R,9R,10R,11R,13R,15R,15aR)-4-ethyltetradecahydro-3a,7,9,11,13,15-hexamethyl-2,6,8,14-tetraoxo-10-[[3,4,6-trideoxy-3-(dimethylamino)-b-β-xylo-hexopyranosyl]oxy]-2H-oxacyclotetradecino[4,3-d]oxazol-11-yl ester]	>16	0.03 µg/mL (≈ 0.0358 µM)	0.06 (≈ 0.0716 µM)	4 (≈ 4.77 µM)	0.12 (≈ 0.143 µM)
